How the values were obtained:
[1] = Evans Blue exclusion procedure; type: physicochemical; conditions: 0.125 mg/mL Evans Blue in FASSIF buffer pH 7, hydrogel #12.035 for 40, 60, 80, 90% fluid uptake; p<0.001 vs no hydrogel
Source text: Commercially obtained Evan's blue dye was used as a surrogate marker for an anionic drug in hydrogel testing. It has a molecular weight of 961.8 g/mole and has four negative charges at pH 7 due to four sulfonate groups in the structure. Its visible light absorbance at 605 nm provides an easy way to monitor the concentration of the dye when exposed to the hydrogel in solution.
FASSIF buffer was created by adding 41.65 g of FASSIF buffer concentrate (Biorelevant Media, code FaSSIF) to 961.1 g DI water and stirred until completely mixed. Evans Blue solution was created by adding Evans Blue to approximately half of the FASSIF solution such that the final concentration of the media is 0.125 mg/mL Evans Blue.
5 mL of Evans Blue solution was added to a 15 mL centrifuge tube (EB Tube). 5 mL of FASSIF buffer (without Evans Blue) was added to another 15 mL tube (Background Tube). 200 mg of sub-63 um hydrogel #12.035 was added to both tubes. Vortexed tubes until fully mixed and placed both tubes on rocker plate for 15 minutes. After 15 minutes, both tubes were centrifuged at 3000 g for 1 minute. (N=3) 20 μL samples were extracted from the supernatant of both tubes and diluted into 180 μL of DI water in 96-well UV-clear plate. […] The plate was read for absorbance at 605 nm.
The absorbance reading samples from each group were averaged. […]

[2] = published values; cited from earlier work
[3] = Exclusion or binding of ionic agents by Hydrogel #3.02, exterior fluid concentration by UV absorbance; type: physicochemical
Method: Sodium caprate (sodium decanoate) is a known intestinal permeation enhancer with a negative charge (negative charge on the caprate). Sodium caprate (280 mg) was dissolved in 5 mL of modified pH 7 FASSIF buffer.
The intestinal permeation enhancer, sodium caprate (280 mg) was added.
Octreotide (as octreotide acetate) is an FDA approved therapeutic peptide with a molecular weight of 1019 g/mole and a net positive charge at pH below 8 (isoelectric point of octreotide=8.5). Octreotide (5 mg) was dissolved in 5 mL of modified FASSIF buffer at pH 7 (resulting in a starting concentration of 1 mg/mL).
Lanreotide is an FDA approved therapeutic peptide with a molecular weight of 1096 g/mole and a net positive charge at pH below 8. Lanreotide (5 mg) was dissolved in 5 mL of modified FASSIF buffer at pH 7.
Lanreotide is an FDA approved therapeutic peptide with a molecular weight of 1096 g/mole and a net positive charge at pH below 8. Lanreotide (5 mg) was dissolved in 5 mL of deionized water.

Structure (SMILES): Cc1cc(-c2ccc(/N=N/c3ccc4c(S(=O)(=O)O)cc(S(=O)(=O)O)c(N)c4c3O)c(C)c2)ccc1/N=N/c1ccc2c(S(=O)(=O)O)cc(S(=O)(=O)O)c(N)c2c1O [Evans Blue]
- relative concentration of the dye as hydrogel is added [1]: increasing concentration

Structure (SMILES): CCCN [propylamine]
- pKa [2]: ~10.7

Structure (SMILES): C[C@@H](O)[C@@H]1NC(=O)[C@H](CCCCN)NC(=O)[C@@H](Cc2c[nH]c3ccccc23)NC(=O)[C@H](Cc2ccccc2)NC(=O)[C@@H](NC(=O)[C@H](N)Cc2ccccc2)CSSC[C@@H](C(=O)N[C@H](CO)[C@@H](C)O)NC1=O [Octreotide]
- concentration in the exterior fluid ([3]; 5 mg in 5 mL modified FASSIF pH 7 (start 1 mg/mL), Hydrogel #3.02 300 mg, after 10 minutes): less than 0.8 mg/mL

Structure (SMILES): CCCCCCCCCC(=O)[O-].[Na+] [Sodium caprate, sodium decanoate]
- concentration of caprate in the exterior fluid relative to initial concentration ([3]; 280 mg in 5 mL modified pH 7 FASSIF, Hydrogel #3.02 300 mg): ~1.4 times the initial concentration

Structure (SMILES): CCS(=O)(=O)O [ethanesulfonic acid]
- pKa [2]: −1.68

Structure (SMILES): COS(=O)(=O)O [methanesulfate]
- pKa [2]: −3.4

Structure (SMILES): CC(C)[C@@H]1NC(=O)[C@H](CCCCN)NC(=O)[C@@H](Cc2c[nH]c3ccccc23)NC(=O)[C@H](Cc2ccc(O)cc2)NC(=O)[C@@H](NC(=O)[C@H](N)Cc2ccc3ccccc3c2)CSSC[C@@H](C(=O)N[C@H](C(N)=O)[C@@H](C)O)NC1=O [Lanreotide]
- concentration in the exterior fluid ([3]; 5 mg in 5 mL deionized water, Hydrogel #3.02 300 mg, after 25 minutes): less than 0.05 mg/mL
- concentration in the exterior fluid ([3]; 5 mg in 5 mL modified FASSIF pH 7, Hydrogel #3.02 300 mg, after 25 minutes): ~300 µg/mL

— patent US20250057772A1, “ORAL DOSAGE FORM WITH IONICALLY CHARGEABLE HYDROGEL FOR DELIVERY OF ACTIVE AGENT” (Entrega Inc., priority 2022, published 2025)
